Experimental data as given in patent US4169950A, “Amino-hydroxy-alkyl sulfonic acid zwitterions” (priority 1977, dated 1979).

Columns and labels:
[1] = Solubility of double zwitterion on acidification; assay type: physicochemical; details: aqueous reaction solution acidified to pH 1.5 with HCl
[2] = pKa (pH of midpoint of buffering range) of the product at 20° C.
Description: (§2) In this application, pKa is used to represent the pH of the midpoint of the buffering range of the particular composition.

[3] = system: NIL B, SV-NIL and BALB/C 3T3 cells; assay: Effectiveness as cell and tissue culture buffers, overall comparison on the cell lines tested; details: for effectiveness as buffer in promotion of cell growth, compared with HEPES / effectiveness as buffer in promotion of cell growth, compared with NaHCO3:CO2 system (control): selected media, cells tested
Description: The cell lines used in the tests were NIL B, a hamster fibroblast line; SV-NIL, an SV40-virus transformed line derived from NIL B; and BALB/C 3T3, a mouse embryo tissue. The cells were seeded into T-flasks (screw-capped polystyrene flasks) with a 25 cm^2 area. On the control flask (CO2 atmosphere), the cap was kept loose to allow gas circulation while the caps on the experimental culture flasks were screwed on tightly. The medium used in these tests was Eagle's MEM 4X (see pages 108-112 of Paul, Cell and Tissue Culture, 5th Edition, 1975), in an Earle's salt solution (page 95 of same text) modified to contain 2.2 g/l of bicarbonate for the experimental buffers. The control was not so modified. The control flask was incubated at 37° C. in an atmosphere of 5% CO2 in air whereas the other flasks were incubated at 37° C. in an air atmosphere. The medium was changed every other day.
At appointed times, triplicate flasks were harvested using trypsin, and the approximate cell population was determined using a Coulter electronic particle counter.

NIL B cells = assay: Effect of buffers on growth of NIL B cells; assay type: cell-based, hamster; details: for Minimum Cell Population: Control at 16 hrs, HEPES at 24 hrs, Ex 3 at 24 hrs
Description: (§1) The control was not so modified. […] The medium was changed every other day.

BALB/C 3T3 = assay: Effect of buffers on growth of 3T3 cells; assay type: cell-based, mouse; details: for Minimum Cell Population: Control at 70 hrs, HEPES at 50 hrs, Ex 3 at 22 hrs
Description: as §1

SV-NIL cells = assay: Effect of buffers on growth of SV-NIL cells; assay type: cell-based, hamster; details: for Minimum Cell Population: Control at 16 hrs, HEPES at 24 hrs, Ex 3 at 26 hrs
Description: as §1

Description for physchem: as §2

| Compound | pKa [2] | effectiveness as buffer in promotion of cell growth, compared with HEPES [3] | effectiveness as buffer in promotion of cell growth, compared with NaHCO3:CO2 system (control) [3] | Time of minimum cell population (NIL B cells) | Number of Cells per cm^2 (NIL B cells; 0 hrs) | Number of Cells per cm^2 (NIL B cells; 90-92 hrs) | Number of Cells per cm^2 (NIL B cells; 12 hrs) | Number of Cells per cm^2 (NIL B cells; 24 hrs) | Number of Cells per cm^2 (NIL B cells; 36 hrs) | Number of Cells per cm^2 (NIL B cells; 48 hrs) | Number of Cells per cm^2 (NIL B cells; 60 hrs) | Number of Cells per cm^2 (NIL B cells; 72 hrs) | Number of Cells per cm^2 (NIL B cells; 84 hrs) | Minimum Cell Population (NIL B cells) | Time of minimum cell population (BALB/C 3T3) | Number of Cells per cm^2 (BALB/C 3T3; 0 hrs) | Number of Cells per cm^2 (BALB/C 3T3; 12 hrs) | Number of Cells per cm^2 (BALB/C 3T3; 24 hrs) | Number of Cells per cm^2 (BALB/C 3T3; 36 hrs) | Number of Cells per cm^2 (BALB/C 3T3; 48 hrs) | other results |
| --- | --- | --- | --- | --- | --- | --- | --- | --- | --- | --- | --- | --- | --- | --- | --- | --- | --- | --- | --- | --- | --- |
| O=S(=O)(O)CC(O)CN1CCN(CC(O)CS(=O)(=O)O)CC1 (stereo not drawn) [Example 4, Piperazine-N,N'-2-hydroxypropyl sulfonic acid (dihydrate)] | 7.85 | – | – | – | – | – | – | – | – | – | – | – | – | – | – | – | – | – | – | – | solubility [1]: very insoluble |
| O=S(=O)(O)CC(O)CN1CCOCC1 (stereo not drawn) [Example 6, 3-(N-morpholino)-2-hydroxypropyl sulfonic acid] | – | about as good as HEPES | not as good as the NaHCO3 :CO2 system | – | – | – | – | – | – | – | – | – | – | – | – | – | – | – | – | – | – |
| O=S(=O)(O)CC(O)CN1CCN(CCO)CC1 (stereo not drawn) [Example 3, N-hydroxyethyl piperazine-N'-2 hydroxypropyl sulfonic acid] | – | as good as, if not better than, the control and the known buffer HEPES | as good as, if not better than, the control | 24 h | 1000 cells per cm^2 | 9400 cells per cm^2 | 740 cells per cm^2 | 550 cells per cm^2 | 900 cells per cm^2 | 1100 cells per cm^2 | 2600 cells per cm^2 | 4300 cells per cm^2 | 6600 cells per cm^2 | about 550 cells per cm^2 | 22 h | 1000 cells per cm^2 | 520 cells per cm^2 | 280 cells per cm^2 | 310 cells per cm^2 | 330 cells per cm^2 | Number of Cells per cm^2 (BALB/C 3T3; 60 hrs): 360 cells per cm^2; Number of Cells per cm^2 (BALB/C 3T3; 72 hrs): 450 cells per cm^2; Number of Cells per cm^2 (BALB/C 3T3; 84 hrs): 805 cells per cm^2; Number of Cells per cm^2 (BALB/C 3T3; 88 hrs): 1015 cells per cm^2; Minimum Cell Population (BALB/C 3T3): about 280 cells per cm^2; Time of minimum cell population (SV-NIL cells): 26 h; Number of Cells per cm^2 (SV-NIL cells; 0 hrs): 1000 cells per cm^2; Number of Cells per cm^2 (SV-NIL cells; 12 hrs): 470 cells per cm^2; Number of Cells per cm^2 (SV-NIL cells; 24 hrs): 220 cells per cm^2; Number of Cells per cm^2 (SV-NIL cells; 36 hrs): 290 cells per cm^2; Number of Cells per cm^2 (SV-NIL cells; 48 hrs): 440 cells per cm^2; Number of Cells per cm^2 (SV-NIL cells; 60 hrs): 680 cells per cm^2; Number of Cells per cm^2 (SV-NIL cells; 72 hrs): 1000 cells per cm^2; Number of Cells per cm^2 (SV-NIL cells; 84 hrs): 1120 cells per cm^2; Number of Cells per cm^2 (SV-NIL cells; 90 hrs): 1200 cells per cm^2; Minimum Cell Population (SV-NIL cells): about 200 cells per cm^2; cell growth utilizing the product as a buffer ([3]; three cell types, average values): general improvement in cell growth |
| O=S(=O)(O)CCN1CCN(CCO)CC1 [HEPES, 4-(2-hydroxyethyl)-1-piperazine-ethanesulfonic acids, reference compound] | – | – | – | 24 h | 1000 cells per cm^2 | 6700 cells per cm^2 | 680 cells per cm^2 | 460 cells per cm^2 | 700 cells per cm^2 | 1010 cells per cm^2 | 1160 cells per cm^2 | 3000 cells per cm^2 | 4800 cells per cm^2 | about 460 cells per cm^2 | 50 h | 1000 cells per cm^2 | 640 cells per cm^2 | 400 cells per cm^2 | 300 cells per cm^2 | 230 cells per cm^2 | Number of Cells per cm^2 (BALB/C 3T3; 60 hrs): 280 cells per cm^2; Number of Cells per cm^2 (BALB/C 3T3; 72 hrs): 380 cells per cm^2; Number of Cells per cm^2 (BALB/C 3T3; 84 hrs): 760 cells per cm^2; Number of Cells per cm^2 (BALB/C 3T3; 88 hrs): 1010 cells per cm^2; Minimum Cell Population (BALB/C 3T3): about 220 cells per cm^2; Time of minimum cell population (SV-NIL cells): 24 h; Number of Cells per cm^2 (SV-NIL cells; 0 hrs): 1000 cells per cm^2; Number of Cells per cm^2 (SV-NIL cells; 12 hrs): 440 cells per cm^2; Number of Cells per cm^2 (SV-NIL cells; 24 hrs): 200 cells per cm^2; Number of Cells per cm^2 (SV-NIL cells; 36 hrs): 230 cells per cm^2; Number of Cells per cm^2 (SV-NIL cells; 48 hrs): 260 cells per cm^2; Number of Cells per cm^2 (SV-NIL cells; 60 hrs): 380 cells per cm^2; Number of Cells per cm^2 (SV-NIL cells; 72 hrs): 580 cells per cm^2; Number of Cells per cm^2 (SV-NIL cells; 84 hrs): 940 cells per cm^2; Number of Cells per cm^2 (SV-NIL cells; 90 hrs): 1040 cells per cm^2; Minimum Cell Population (SV-NIL cells): about 200 cells per cm^2 |
| O=S(=O)(O)CC(O)CN(CCO)CCO (stereo not drawn) [Example 1, 3-[N-(bis-hydroxyethyl)-amino]-2-hydroxypropyl sulfonic acid] | 7.6 | – | – | – | – | – | – | – | – | – | – | – | – | – | – | – | – | – | – | – | – |
| O=S(=O)(O)CC(O)CNC(CO)(CO)CO (stereo not drawn) [Example 2, 3-[N-(tris-hydroxymethyl)methylamino]-2-hydroxypropane sulfonic acid] | – | – | – | – | – | – | – | – | – | – | – | – | – | – | – | – | – | – | – | – | pKa (physchem): 7.7 |
